Measured values taken from patent publication US7745437B2, “Compounds and compositions as protein kinase inhibitors” (IRM LLC, priority 2004, dated 2010).

Experiments:
[1] = biological target: T1, wild type Bcr-abl (Homo sapiens, UniProt P00519); test: Proliferation of Ba/F3 cells expressing wild type Bcr-abl; assay type: cell-based
T1 construct: expressed in transfected cells; host or cells: Ba/F3; the other entry of the earlier key: BCR (P11274, Breakpoint cluster region protein)
Method: (§1) 32D-p210 cells are plated into 96 well TC plates at a density of 15,000 cells per well. 50 μL of two fold serial dilutions of the test compound (Cmax is 40 μM) are added to each well (STI571 is included as a positive control). After incubating the cells for 48 hours at 37° C., 5% CO2, 15 μL of MTT (Promega) is added to each well and the cells are incubated for an additional 5 hours. The optical density at 570 nm is quantified spectrophotometrically and IC50 values, the concentration of compound required for 50% inhibition, determined from a dose response curve.
(§2) Compounds of the invention are tested for their antiproliferative effect on Ba/F3 cells expressing either wild type or the mutant forms of BCR-Abl (G250E, E255V, T3151, F317L, M351T) that confers resistance or diminished sensitivity to STI571. The antiproliferative effect of these compounds on the mutant-BCR-Abl expressing cells and on the non transformed cells were tested at 10, 3.3, 1.1 and 0.37 μM as described above (in media lacking IL3). The IC50 values of the compounds lacking toxicity on the untransformed cells were determined from the dose response curves obtained as describe above.

[2] = biological target: T2, G250E Bcr-abl (Homo sapiens, UniProt P00519, G250E); test: Proliferation of Ba/F3 cells expressing mutant Bcr-abl G250E; assay type: cell-based
T2 construct: expressed in transfected cells; host or cells: Ba/F3; the other entry of the earlier key: BCR (P11274, Breakpoint cluster region protein)
T2 sequence (P00519 229-512 G250E limits assumed): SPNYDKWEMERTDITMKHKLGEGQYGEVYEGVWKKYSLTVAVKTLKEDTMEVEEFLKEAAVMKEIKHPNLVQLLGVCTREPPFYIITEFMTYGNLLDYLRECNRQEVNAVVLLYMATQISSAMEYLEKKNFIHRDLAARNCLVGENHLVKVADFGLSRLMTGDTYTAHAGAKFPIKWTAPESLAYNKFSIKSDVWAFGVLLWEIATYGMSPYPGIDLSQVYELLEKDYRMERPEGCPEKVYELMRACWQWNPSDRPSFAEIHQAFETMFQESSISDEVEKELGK
Method: as §1, §2

[3] = biological target: T3, E255V Bcr-abl (Homo sapiens, UniProt P00519, E255V); test: Proliferation of Ba/F3 cells expressing mutant Bcr-abl E255V; assay type: cell-based
T3 construct: expressed in transfected cells; host or cells: Ba/F3; the other entry of the earlier key: BCR (P11274, Breakpoint cluster region protein)
Method: as §1, §2

[4] = biological target: T4, F317L Bcr-abl (Homo sapiens, UniProt P00519, F317L); test: Proliferation of Ba/F3 cells expressing mutant Bcr-abl F317L; assay type: cell-based
T4 construct: expressed in transfected cells; host or cells: Ba/F3; the other entry of the earlier key: BCR (P11274, Breakpoint cluster region protein)
Method: as §1, §2

[5] = biological target: T5, M351T Bcr-abl (Homo sapiens, UniProt P00519, M351T); test: Proliferation of Ba/F3 cells expressing mutant Bcr-abl M351T; assay type: cell-based
T5 construct: expressed in transfected cells; host or cells: Ba/F3; the other entry of the earlier key: BCR (P11274, Breakpoint cluster region protein)
T5 sequence (P00519 242-493 M351T limits assumed): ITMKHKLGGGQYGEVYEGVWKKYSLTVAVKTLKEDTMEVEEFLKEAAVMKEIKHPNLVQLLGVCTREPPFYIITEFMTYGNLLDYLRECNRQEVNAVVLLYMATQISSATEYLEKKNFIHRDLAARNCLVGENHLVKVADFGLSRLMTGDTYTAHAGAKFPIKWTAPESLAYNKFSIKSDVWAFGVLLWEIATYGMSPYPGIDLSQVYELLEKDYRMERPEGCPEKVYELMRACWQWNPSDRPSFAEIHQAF
Method: as §1, §2

[6] = biological target: T6, FLT3 (Homo sapiens, UniProt P36888, cells depend on it, form not given); test: FLT3 (Cellular Assay), Ba/F3-FLT3-ITD cell proliferation; assay type: cell-based; settings: read-out: IC50 for FLT3
T6 sequence (P36888 1-993): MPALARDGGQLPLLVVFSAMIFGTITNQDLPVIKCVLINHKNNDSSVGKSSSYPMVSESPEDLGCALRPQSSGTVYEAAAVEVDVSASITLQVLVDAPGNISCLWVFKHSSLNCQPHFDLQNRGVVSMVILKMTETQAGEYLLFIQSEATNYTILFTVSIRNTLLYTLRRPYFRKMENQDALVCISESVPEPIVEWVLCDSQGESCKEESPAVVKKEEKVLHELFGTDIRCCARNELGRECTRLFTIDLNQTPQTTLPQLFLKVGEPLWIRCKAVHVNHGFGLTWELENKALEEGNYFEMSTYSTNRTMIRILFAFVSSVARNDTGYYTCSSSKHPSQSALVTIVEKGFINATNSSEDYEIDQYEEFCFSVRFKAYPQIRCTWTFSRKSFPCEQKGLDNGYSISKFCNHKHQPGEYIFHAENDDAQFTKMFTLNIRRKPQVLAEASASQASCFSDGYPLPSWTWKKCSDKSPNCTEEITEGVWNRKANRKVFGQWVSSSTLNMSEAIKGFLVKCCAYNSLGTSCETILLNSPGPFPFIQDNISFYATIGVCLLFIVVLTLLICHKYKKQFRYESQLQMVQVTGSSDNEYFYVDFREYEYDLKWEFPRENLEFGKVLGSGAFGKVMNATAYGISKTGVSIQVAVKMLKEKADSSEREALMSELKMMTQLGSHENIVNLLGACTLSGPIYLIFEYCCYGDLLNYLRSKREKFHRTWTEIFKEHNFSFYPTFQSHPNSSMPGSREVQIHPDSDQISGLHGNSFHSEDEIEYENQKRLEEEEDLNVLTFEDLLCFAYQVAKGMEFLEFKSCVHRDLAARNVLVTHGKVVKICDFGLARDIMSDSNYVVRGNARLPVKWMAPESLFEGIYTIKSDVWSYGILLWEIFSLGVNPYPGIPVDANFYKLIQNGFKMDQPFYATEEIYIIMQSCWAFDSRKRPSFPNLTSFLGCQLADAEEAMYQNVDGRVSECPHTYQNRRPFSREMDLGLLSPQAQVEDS

[7] = biological target: T7, PDGFRβ (Homo sapiens, UniProt P09619); test: PDGFRβ (Cellular Assay), Ba/F3-Tel-PDGFRβ cell proliferation; assay type: cell-based; settings: Ba/F3-Tel-PDGFRβ cells; read-out: IC50 for PDGFRβ
T7 construct: fused on or other part: P41212 (Transcription factor ETV6)
T7 sequence (P09619 600-962 limits assumed, change not shown): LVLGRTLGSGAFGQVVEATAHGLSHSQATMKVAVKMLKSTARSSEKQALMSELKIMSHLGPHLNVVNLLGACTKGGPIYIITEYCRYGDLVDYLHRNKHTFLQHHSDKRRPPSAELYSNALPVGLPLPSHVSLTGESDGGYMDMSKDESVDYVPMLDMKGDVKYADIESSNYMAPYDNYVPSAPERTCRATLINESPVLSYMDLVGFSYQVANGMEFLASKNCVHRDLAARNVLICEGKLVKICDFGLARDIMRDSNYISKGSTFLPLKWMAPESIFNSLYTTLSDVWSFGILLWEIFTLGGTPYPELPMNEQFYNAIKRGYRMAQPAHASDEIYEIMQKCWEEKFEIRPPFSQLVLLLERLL

[8] = biological target: T8, FGFR3 (Homo sapiens, UniProt P22607); test: FGFR3 (Enzymatic Assay), HTRF; assay type: biochemical; design: purchased Upstate; settings: purified FGFR3, 3 μM ATP; read-out: IC50 for the FGFR3 enzyme assay
Method: Kinase activity assay with purified FGFR3 (Upstate) is carried out in a final volume of 10 μL containing 0.25 μg/mL of enzyme in kinase buffer (30 mM Tris-HCl pH7.5, 15 mM MgCl2, 4.5 mM MnCl2, 15 μM Na3VO4 and 50 μg/mL BSA), and substrates (5 μg/mL biotin-poly-EY (Glu, Tyr) (CIS-US, Inc.) and 3 μM ATP). Two solutions are made: the first solution of 5 μl contains the FGFR3 enzyme in kinase buffer was first dispensed into 384-format ProxiPlate® (Perkin-Elmer) followed by adding 50 nL of compounds dissolved in DMSO, then 5 μl of second solution contains the substrate (poly-EY) and ATP in kinase buffer was added to each wells. The reactions are incubated at room temperature for one hour, stopped by adding 10 μL of HTRF detection mixture, which contains 30 mM Tris-HCl pH7.5, 0.5 M KF, 50 mM ETDA, 0.2 mg/mL BSA, 15 μg/mL streptavidin-XL665 (CIS-US, Inc.) and 150 ng/mL cryptate conjugated anti-phosphotyrosine antibody (CIS-US, Inc.). After one hour of room temperature incubation to allow for streptavidin-biotin interaction, time resolved florescent signals are read on Analyst GT (Molecular Devices Corp.). IC50 values are calculated by […] analysis of the percentage inhibition of each compound at 12 concentrations (1:3 dilution from 50 μM to 0.28 nM).
Target sequence in this assay (P22607 23-806): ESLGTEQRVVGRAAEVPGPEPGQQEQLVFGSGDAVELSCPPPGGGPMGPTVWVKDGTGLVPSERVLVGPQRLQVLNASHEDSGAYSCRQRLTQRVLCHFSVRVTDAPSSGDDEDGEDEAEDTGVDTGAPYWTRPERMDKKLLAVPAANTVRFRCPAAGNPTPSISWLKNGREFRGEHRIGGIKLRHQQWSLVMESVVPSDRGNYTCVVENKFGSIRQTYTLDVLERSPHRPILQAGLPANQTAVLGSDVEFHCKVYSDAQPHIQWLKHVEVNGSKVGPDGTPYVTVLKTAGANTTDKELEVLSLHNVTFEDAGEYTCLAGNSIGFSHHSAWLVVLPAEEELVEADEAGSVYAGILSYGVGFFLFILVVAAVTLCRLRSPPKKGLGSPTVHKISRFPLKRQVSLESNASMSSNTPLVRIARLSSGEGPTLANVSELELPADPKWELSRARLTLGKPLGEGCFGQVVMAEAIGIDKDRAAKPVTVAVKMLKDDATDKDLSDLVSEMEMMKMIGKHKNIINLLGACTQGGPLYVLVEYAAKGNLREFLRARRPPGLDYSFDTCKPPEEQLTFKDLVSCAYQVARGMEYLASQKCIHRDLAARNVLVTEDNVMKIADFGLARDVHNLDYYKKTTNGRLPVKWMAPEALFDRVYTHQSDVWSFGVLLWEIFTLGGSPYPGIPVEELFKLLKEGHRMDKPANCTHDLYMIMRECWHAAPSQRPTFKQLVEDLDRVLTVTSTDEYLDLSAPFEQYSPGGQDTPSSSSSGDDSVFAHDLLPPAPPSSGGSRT

[9] = biological target: T8, FGFR3; test: FGFR3 (Cellular Assay), Ba/F3-TEL-FGFR3 cell proliferation; assay type: cell-based; design: fused on or other part: P41212 (Transcription factor ETV6); settings: Ba/F3-TEL-FGFR3 cells, 48 hours; read-out: IC50 for the FGFR3 cellular assay
Method: Compounds of the invention are tested for their ability to inhibit transformed Ba/F3-TEL-FGFR3 cells proliferation, which is depended on FGFR3 cellular kinase activity. Ba/F3-TEL-FGFR3 are cultured up to 800,000 cells/mL in suspension, with RPMI 1640 supplemented with 10% fetal bovine serum as the culture medium. Cells are dispensed into 384-well format plate at 5000 cell/well in 50 μL culture medium. Compounds of the invention are dissolved and diluted in dimethylsufoxide (DMSO). Twelve points 1:3 serial dilutions are made into DMSO to create concentrations gradient ranging typically from 10 mM to 0.05 μM. Cells are added with 50 nL of diluted compounds and incubated for 48 hours in cell culture incubator. AlamarBlue® (TREK Diagnostic Systems), which can be used to monitor the reducing environment created by proliferating cells, are added to cells at final concentration of 10%. After additional four hours of incubation in a 37° C. cell culture incubator, fluorescence signals from reduced AlamarBlue® (Excitation at 530 nm, Emission at 580 nm) are quantified on Analyst GT (Molecular Devices Corp.). IC50 values are calculated by linear regression analysis of the percentage inhibition of each compound at 12 concentrations.
Target sequence in this assay (P22607 472-761 limits assumed, stated change not applied): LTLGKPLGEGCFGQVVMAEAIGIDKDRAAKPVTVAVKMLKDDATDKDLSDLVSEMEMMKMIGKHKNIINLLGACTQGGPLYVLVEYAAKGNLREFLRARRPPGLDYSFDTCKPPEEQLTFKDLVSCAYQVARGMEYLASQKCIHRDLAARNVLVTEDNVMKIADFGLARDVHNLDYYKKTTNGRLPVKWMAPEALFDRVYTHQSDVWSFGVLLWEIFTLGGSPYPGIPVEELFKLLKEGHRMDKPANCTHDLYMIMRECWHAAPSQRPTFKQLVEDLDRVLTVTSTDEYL

IC50 [1] [nM] | IC50 [2] [nM] | IC50 [3] [nM] | IC50 [4] [nM] | IC50 [5] [nM] | GI50 [6] [nM] | GI50 [7] [nM] | IC50 [8] [nM] | GI50 [9] [nM] | Compound
< 0.5 | 20 | 36 | < 0.5 | < 0.5 |  |  |  |  | Cc1cn(-c2cc(C(=O)Nc3ccc(C)c(Nc4nccn4-c4cc(NC5CC5)ncn4)c3)cc(C(F)(F)F)c2)cn1 [Compound 27, N-{3-[1-(6-cyclopropylamino-pyrimidin-4-yl)-1H-imidazol-2-ylamino]-4-methyl-phenyl}-3-(4-methyl-imidazol-1-yl)-5-trifluoromethyl-benzamide]
 |  |  |  |  | 149 | 2 | 130 | 34 | CCN1CCN(Cc2ccc(C(=O)Nc3ccc(C)c(Nc4nccn4-c4cc(NC5CC5)ncn4)c3)cc2C(F)(F)F)CC1 [Compound 25, N-{3-[1-(6-Cyclopropylamino-pyrimidin-4-yl)-1H-imidazol-2-ylamino]-4-methyl-phenyl}-4-(4-ethyl-piperazin-1-ylmethyl)-3-trifluoromethyl-benzamide]
 |  |  |  |  | 89 | 2 | 65 | 37 | Cc1ccc(NC(=O)c2ccc(CN3CCN(C)CC3)c(C(F)(F)F)c2)cc1Nc1nccn1-c1cc(NC2CC2)ncn1 [Compound 26, N-{3-[1-(6-Cyclopropylamino-pyrimidin-4-yl)-1H-imidazol-2-ylamino]-4-methyl-phenyl}-4-(4-methyl-piperazin-1-ylmethyl)-3-trifluoromethyl-benzamide]
